In patent US20070212426A1, “Composition and method of retarding viral activity and reducing viral replication” (priority 2006, published 2007):
Like-named read-outs stand apart in the source and are kept apart here.

Tests used:
[1] = test system: human influenza A virus (VR-1520); type: cell-based; settings: for output of Antigen to the control's output: Vero cells, control 245 Antigen units/ml
[2] = test system: Influenza Virus A's Neuraminidase; experiment: Neuraminidase activity of cell-free virus, 4-methylumbelliferyl N-acetylneuramic acid substrate
From the text: The method of these experiments are well known in the art, however, in brief, cell free virus are mixed with an equal volume of the composition in Table 1 or Ascorbic Acid in another, at various concentrations, and any inhibitory activity is observed at various time points after the mixture. Spectrophotometer assay for Neuraminidase has been established in the laboratory at using 4-methylumbelliferyl N-acetylneuramic acid as a substrate in the cell free system.

## O=C1O[C@H]([C@@H](O)CO)C(O)=C1O [ascorbic acid]
[1]; 50 micromoles
  output of Antigen to the control's output: 35%
[1]; 100 micromoles
  output of Antigen to the control's output: 45%
[1]; 250 micromoles
  output of Antigen to the control's output: 41%
[1]; various concentrations, serum-free medium
  Influenza A virus antigen production in Vero cells (figure legend): marginal decrease
[2]; 1000 microgram/ml
  Neuraminidase activity to the control's: 90%
[2]; 2000 microgram/ml
  Neuraminidase activity to the control's: 85%
[2]; 3000 microgram/ml
  Neuraminidase activity to the control's: 80%
